Data as given in patent US7388006B2, “Non-steroidal progesting” (Bayer Schering Pharma AG, priority 2002, dated 2008).

Assays:
PR-A = type: cell-based; conditions: PR-A efficacy minus PR-B efficacy
Protocol: The method for screening for PR isoform-specific progestins according to the present invention is carried out with first and second SK-N-MC cells stably transfected with a plasmid expressing the HPR-A (first cells) or the hPR-B (second cells) and the LUC reporter gene linked to the hormonally responsive MTV promoter.
The cells are cultured in Minimum Essential Medium with Earl's Salts (S-MEM, without L-glutamine; Gibco BRL, no. 21090-022), supplemented with 10% fetal calf serum (FCS), penicillin 100U/streptomycin 100 μg/ml (Biochrom, no. A2213), L-glutamine 4 mmol/l (Gibco BRL, no. 25030-024), sodium pyruvate 1 mmol/l (Biochrom, no. L0473) and 1×non-essential amino acids (Biochrom, no. K0293) at a temperature of 37° C. and in an atmosphere of 5% carbon dioxide.
For the transcription assay, the cells are seeded onto 96-well dishes (2×10^4 cells/dish) and cultured in a medium as described above, with the exception that the FCS is replaced by a 3% charcoal stripped FCS. 48 hours later, cells are contacted with prediluted test compounds. For determination of agonistic activity, cells are cultured in the presence of 6 increasing concentrations (10^−6 to 10^−11 mol/l) of test progestins. As a positive control for reporter gene induction cells are treated with 10^−6 to 10^−11 mol/l R5020 (promegestone). As a negative control for reporter gene induction, cells are cultured in 1% ethanol.
After incubation with test progestins for 24 hours, the medium is removed and cells are lysed with 20 μl of lysis buffer (Luciferase Assay System E 153A; Promega) and under agitation of the plate for 101 min. After addition of 30 μl of luciferase reagent (Luciferase Assay System E 151A+152A; Promega) within 30 seconds per plate, the activity of the luciferase reporter gene product is determined in the cell lysates by means of a Microlite ML 3000 microtiter plate luminometer (Dynatech) in cycle mode.
Evaluation of the response gives the efficacy [%], and evaluation of the EC50s values gives the potency [nM]. Calculation of the agonistic activity is conducted as follows:
The LUC activity [%] for the measured data points is calculated as follows:
[formula] wherein CI=100% stimulation (R5020, 10^−7 mol/l) and CO=0% stimulation (ethanol, 1%).
Thus, the efficacy [%] is calculated according to: […]
The potency [nM], i.e. the EC50, is determined graphically.

rat mammary epithelium = test: MIB-5 immunohistochemistry, proliferation of the mammary epithelium; type: in vivo; conditions: 0.3 mg/kg/d, FIG. 2
Protocol: In order to determine the effects of test progestins according to the present invention, in particular compound ((+)-1), in mammary gland differentiation and proliferation, premature female rats (Wistar Han, SPF) are ovariectomized at the age of 21 days, 4 to 6 days before treatment start. The animals are treated for 6 days with standard estrogen (estrone (E1), 70 μg/kg) and the test progestin ((+)-1) (application volume: 0.1 ml/50 g body weight; vehicle: benzylbenzoate/castor oil (1+4 v/v); subcutaneous). Control groups are e.g.: vehicle, estrone without progestin, estradiol together with a known progestin, e.g. R5020 (promegestone). After the 6-day treatment the animals are killed with carbon dioxide.
For the whole mount staining, animals are shaved in the left abdominal inguinal mammary region, which is cut from the body together with the skin. For the histological/immunohistochemical analyses the right abdominal inguinal mammary gland is cut from the body together with the connective-tissue adhered thereto and fixed in 3.7% formalin in PBS (phosphate buffer saline; without Ca^2+/Mg^2+).
For a more detailed evaluation of the proliferation of the mammary epithelium, cells are stained with the proliferation marker MIB-5 as follows (cf. FIG. 2): Mammary glands are fixed in 4% formaldehyde/PBS for 24 h and embedded in paraffm. 4 μm sections are spread on slides, deparaffinized, treated with microwaves for 10 min. in citrate buffer pH 6.0 and rinsed with PBS. Slides are then blocked with 3% H2O2/methanol for 15 min., Blockingkit (Vektor, no. SP-2001) for 10 min. and rat serum (Sigma, no. S-7648) diluted 1:2 in PBS for 30 min to reduce nonspecific staining and rinsed in PBS. Slides are incubated for 1 hour with monoclonal antibody MIB-5 (Dianova, no. Dia-5055), which is specific for the rat Ki-67 antigen (1:200 diluted in PBS/0.2% BSA). […]
In order to characterize a test compound, the percentage of MIB-5 stained mammary epithelium cells is determined. […]

[1] = system: pregnancy in ovariectomized rats; test: Pregnancy maintenance test in rat; type: in vivo; conditions: ovariectomized pregnant rats, with estrone
Text: In rats, castration induces termination of pregnancy. Progestins (combined with estrogens) are capable of maintaining pregnancy in castrated animals. However, the degree of pregnancy maintenance in castrated rats is optimal only in a defined dose range. Therefore, higher as well as lower doses generally induce a weaker effect. Accompanying treatment with defined doses of estrone (E1) increases the pregnancy maintaining effect of progestins.
Pregnant rats (Wistar Han, SPF) of 190 to 220 g (5 to 8 animals per dose) are ovariectomized on day 8 of pregnancy, 2 hours after the first substance administration. From day 8 to day 14, rats are daily treated with test progestin in combination with a standard dose of E1. One day later, animals are killed with carbon dioxide. For each animal, the number of living and dead fetuses is determined according to the heartbeat of the embryos. In case of empty uteri, the number of implantation sites is determined by means of staining with a 10% ammonium sulfide solution.
S.c. (subcutaneous) application: The test progestin is dissolved in benzyl benzoate/castor oil (1+4 v/v), and the daily dose is administered in a volume of 1 ml/kg body weight.
P.o. (peroral) application: The test progestin is suspended in a carrier liquid (85 mg Myrj^R in 100 ml 0.9% w/v NaCl solution), and the daily dose is administered in a volume of 2 ml/kg body weight.
I.p. (intraperitoneal) application: The test progestin is dissolved in propylene glycol and charged in miniature osmotic pumps (type 2001, 1.0 μl/h, 7 days), which are placed in the abdominal cavity of the rat.
The standard dose of estrone is 0.005 mg/kg body weight s.c. and is dissolved in benzyl benzoate/castor oil ([…]).
It is determined the pregnancy maintenance per animal [%], the pregnancy maintenance per dose (median of single values) and the EC50 (dose, at which pregnancy is maintained in 50% of the animals; 100% corresponds to control animals that are not ovariectomized). The results of the test are further discussed below in c).

SMILES | Δ agonism efficacies (A-B) (PR-A) | other results
Cc1noc(=O)c2ccc(NC(=O)C(O)(CC3(c4cccc(C(F)(F)F)c4F)CC3)C(F)(F)F)cc12 (single isomer, unassigned; (+)) [((+)-2), (+)-6-{2-hydroxy-3-[1-(2-fluoro-3-trifluoromethylphenyl)-cyclopropyl]-2-trifluoro-methyl-propionylamino}-4-methyl-2,3-benzoxazin-1-one] | 32 | –
Cc1noc(=O)c2ccc(NC(=O)C(C)(O)CC3(c4cccc(C(F)(F)F)c4)CC3)cc12 (single isomer, unassigned; (+)) [((+)-3), (+)-6-{2-hydroxy-3-[1-(3-trifluoromethylphenyl)-cyclopropyl]-2-methyl-propionylamino}-4-methyl-2,3-benzoxazin-1-one] | 23 | –
O=C1OCc2cc(NC(=O)C(O)(CC3(c4cccc(C(F)(F)F)c4F)CC3)C(F)(F)F)ccc21 (single isomer, unassigned; (+)) [((+)-4), (+)-5-{2-hydroxy-3-[1-(2-fluoro-3-trifluoromethylphenyl)-cyclopropyl]-2-trifluoromethyl-propionylamino}-phthalide] | 18 | –
Cc1noc(=O)c2ccc(NC(=O)C(C)(O)CC3(c4cccc(C(F)(F)F)c4)CC3)cc12 (single isomer, unassigned; (-)) [((−)-3), (−)-6-{2-Hydroxy-3-[1-(3-trifluoromethylphenyl)-cyclopropyl]-2-methyl-propionylamino}-4-methyl-2,3-benzoxazin-1-one] | – | melting point: 129 to 130 °C
CCC(=O)[C@@]1(C)CC[C@H]2[C@@H]3CCC4=CC(=O)CCC4=C3CC[C@@]21C [R5020, promegestone, reference compound] | – | MIB-5 positive cells (rat mammary epithelium): ~42%; Maintenance of pregnancy (rat) [EC50] [1]: 0.1 mg/kg/day
